The target in one assay is serotonin 2 receptor (Rattus norvegicus, UniProt P14842). Description: Binding test on [3H] ketanserin (serotonin 2 receptor).
The target of another assay is T1, serotonin 1A receptor (Rattus norvegicus, UniProt P19327).
T1 construct: To the receptor fraction of the hippocampus were added a test compound and 0.5 nM of [^3H]; 8-hydroxy-dipropylaminotetralin; from tissue; host or cells: SD rat hippocampus, membrane (receptor) fraction
T1 sequence (P19327 1-422): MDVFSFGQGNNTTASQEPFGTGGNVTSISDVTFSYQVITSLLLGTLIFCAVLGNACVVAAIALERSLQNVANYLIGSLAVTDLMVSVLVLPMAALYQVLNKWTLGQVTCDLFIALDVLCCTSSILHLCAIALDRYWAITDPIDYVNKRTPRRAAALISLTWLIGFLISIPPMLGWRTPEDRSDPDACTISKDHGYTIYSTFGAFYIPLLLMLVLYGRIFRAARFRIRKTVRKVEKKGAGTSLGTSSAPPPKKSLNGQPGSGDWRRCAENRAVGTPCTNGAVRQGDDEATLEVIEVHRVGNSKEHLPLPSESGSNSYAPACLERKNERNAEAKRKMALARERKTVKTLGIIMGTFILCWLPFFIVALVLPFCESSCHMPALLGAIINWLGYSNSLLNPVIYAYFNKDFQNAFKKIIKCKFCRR
Description: Binding test on [3H] 8-hydroxy-dipropylaminotetralin (serotonin 1A receptor). Particulars: [3H] 8-OH-DPAT 0.5 nM, receptor fraction of rat hippocampus; read-out: 5HT1a.

A further assay has as its target α1 adrenalin receptor. The assay can be described thus: Binding test on [3H] prazosin (α1 adrenalin receptor). Further details: species or system rat.
Setting [1] is: [3H] ketanserin 0.3 nM, receptor fraction of rat cerebral cortex, read-out: 5HT2.
The mark [2] stands for this setting: [3H] prazosin about 0.2 nM, receptor fraction of rat cerebral cortex.

Where a name gives a salt, the structure may show the parent alone. Read-outs that look alike come from different tables or passages of the source.

Sequence of serotonin 2 receptor (P14842 whole entry): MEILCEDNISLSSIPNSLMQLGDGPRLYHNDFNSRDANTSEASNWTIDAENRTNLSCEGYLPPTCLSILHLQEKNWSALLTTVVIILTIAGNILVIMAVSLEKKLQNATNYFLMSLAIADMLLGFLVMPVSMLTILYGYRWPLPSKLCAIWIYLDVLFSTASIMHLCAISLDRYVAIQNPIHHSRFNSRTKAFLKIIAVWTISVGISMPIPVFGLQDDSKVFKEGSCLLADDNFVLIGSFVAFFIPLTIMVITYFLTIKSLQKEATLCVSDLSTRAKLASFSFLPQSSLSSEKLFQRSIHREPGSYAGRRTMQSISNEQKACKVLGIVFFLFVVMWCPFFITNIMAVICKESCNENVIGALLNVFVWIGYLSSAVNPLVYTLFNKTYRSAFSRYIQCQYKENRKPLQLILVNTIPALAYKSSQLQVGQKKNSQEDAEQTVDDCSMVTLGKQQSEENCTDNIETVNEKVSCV
Description for serotonin 1A receptor: 3) [^3H] 8-Hydroxy-dipropylaminotetralin (8-OH-DPAT).
(§1) Use was made of SD rats aged 6 to 8 weeks.
(§2) The rats were sacrificed by dcapitation to extirpate the cerebra.
Each mixture was homogenized by using a Teflon glass homogenizer and centrifuged at 1,000×g for 10 min. The supernatant thus obtained was further centrifuged at 20,000×g for 20 min. The obtained precipitate was re-suspended in 50 times (based on the intial wet weight; in the case of the hippocampus) or 10 times (in the case of the cortex) as much a 50 mM Tris hydrochloride (pH 7.4) and incubated at room temperature for 30 min. After centrifuging at 20,000×g for 20 min, the obtained precipitate was further suspended and centrifuged twice each in the same manner. The precipitate thus obtained was suspended in 100 times (based on the initial wet weight; in the case of the hippocampus) or 20 times (in the case of the cortex) as much a 50 mM Tris hydrochloride solution (pH 7.4) to thereby give a receptor fraction. This receptor fraction was stored at −80° C. until using.
(Binding Test on [^3H] 8-hydroxy-dipropylaminotetralin)
To the receptor fraction of the hippocampus were added a test compound and 0.5 nM of [^3H] 8-hydroxy-dipropylaminotetralin and the resultant mixture was incubated at room temperature for 30 min. Next, it was filtered through a glass filter with the use of a cell harvester. After washing the glass filter with 50 mM Tris hydrochloride (pH 7.4), the radioactivity of the receptor was measured with a liquid scintillation counter. The binding detected in the presence of 10 μM of serotonin binoxalate was referred to as the nonspecific binding.
IC50 was calculated by the probit method, while Ki was determined in accordance with the following formula:
wherein c represents the concentration of the radioisotope-labeled compound, and Kd represents the dissociation constant of the radioisotope-labeled compound with respect to the receptor determined by Scatchard's analysis.
Description for α1 adrenalin receptor: Methysergide maleate was dissolved in distilled water before using.
as §1, §2
The hippocampus was mixed with 50 times (on the wet weight basis) as much a 0.32 M sucrose solution while the cortex was mixed with 10 times as much the same solution. Each mixture was homogenized by using a Teflon glass homogenizer and centrifuged at 1,000×g for 10 min. The supernatant thus obtained was further centrifuged at 20,000×g for 20 min. The obtained precipitate was re-suspended in 50 times (based on the intial wet weight; in the case of the hippocampus) or 10 times (in the case of the cortex) as much a 50 mM Tris hydrochloride (pH 7.4) and incubated at room temperature for 30 min. After centrifuging at 20,000×g for 20 min, the obtained precipitate was further suspended and centrifuged twice each in the same manner. The precipitate thus obtained was suspended in 100 times (based on the initial wet weight; in the case of the hippocampus) or 20 times (in the case of the cortex) as much a 50 mM Tris hydrochloride solution (pH 7.4) to thereby give a receptor fraction. This receptor fraction was stored at −80° C. until using.
(Binding Test on [^3H] Prazosin)
Next, it was filtered through a glass filter with the use of a cell harvester. After washing the glass filter with 50 mM Tris hydrochloride (pH 7.4), the radioactivity of the receptor was measured with a liquid scintillation counter. The binding detected in the presence of 10 μM of phentolamine was referred to as the nonspecific binding.
Subsequently, the abilities of typical examples of the compounds of the present invention to bind to the α1 adrenalin receptor were evaluated by the test method described above.

Regarding `CC(=O)NCc1ccc2c(C=O)cn(C3CCN(CCc4ccc(F)cc4)CC3)c2c1` [Example 370, 1-[1-(4-fluorophenethyl)piperidin-4-yl]-3-formyl-6-acetamidomethylindole], the figures for the Ki at serotonin 2 receptor (setting [1]), on serotonin 1A receptor and at α1 adrenalin receptor (setting [2]) were more than 20 nM, more than 20 nM and 256 nM, respectively.
For the molecule `O=C(Cc1ccc2ccn(C3CCN(CCc4ccc(F)cc4)CC3)c2c1)NCc1ccccn1` [Example 341, 1-[1-(4-fluorophenethyl)piperidin-4-yl]-6-(pyridin-2-yl)methylcarbamoylmethylindole Oxalate], the Ki on serotonin 2 receptor (setting [1]) was determined as 0.67 nM; at serotonin 1A receptor, 2.08 nM; on α1 adrenalin receptor (setting [2]), 47.6 nM.
The corresponding values for `CC(=O)N(C)Cc1ccc2ccn(C3CCN(CCc4ccc(F)cc4)CC3)c2c1` [Example 359, 1-[1-(4-fluorophenethyl)piperidin-4-yl]-6-N-methylacetamidomethylindole] are 7.39 nM, 0.71 nM and 75.9 nM.
For the molecule `O=C(Cc1ccc2ccn(C3CCN(CCc4ccc(F)cc4)CC3)c2c1)N(CCO)CCO` [Example 303, 1-[1-(4-fluorophenethyl)piperidin-4-yl]-6-[bis(2-hydroxyethyl)]carbamoylmethylindole Oxalate], the Ki was determined as 35.8 nM on serotonin 2 receptor (setting [1]), 3.6 nM at serotonin 1A receptor and 307 nM on α1 adrenalin receptor (setting [2]).
For `CCCC(=O)NCc1ccc2ccn(C3CCN(CCc4ccc(F)cc4)CC3)c2c1` [Example 362, 1-[1-(4-fluorophenethyl)piperidin-4-yl]-6-(n-butyryl)aminomethylindole] the same measures were 3.54 nM, 0.46 nM and 144 nM.
On to `Nc1nc2cc3c(cc2s1)CCN3C1CCN(CCc2ccc(F)cc2)CC1` [Example 235], for which the Ki on serotonin 2 receptor (setting [1]) came out at 14.6 nM; at serotonin 1A receptor, 0.2 nM; at α1 adrenalin receptor (setting [2]), 77.8 nM.
On to `O=S1(=O)CCCN1Cc1ccc2ccn(C3CCN(CCc4ccc(F)cc4)CC3)c2c1` [Example 326, 1-[1-(4-fluorophenethyl)piperidin-4-yl]-6-(1,3-propanesultam-2-yl)methylindole], for which the Ki at serotonin 2 receptor (setting [1]) is more than 20 nM; at serotonin 1A receptor, 0.4 nM; on α1 adrenalin receptor (setting [2]) it was 167 nM.
As for `COc1ccc2c(c1)C(N1CCN(CCc3ccc(F)cc3)CC1)CC2` (stereo not drawn) [Example 250, 1-{4-[2-(4-fluorophenyl)ethyl]piperazin-1-yl}-6-methoxyindan Hydrochloride], the results for the Ki on serotonin 2 receptor (setting [1]), on serotonin 1A receptor and on α1 adrenalin receptor were 18.8 nM, 1.6 nM and 263 nM, respectively.
For `O=Cc1ccc2ccn(C3CCN(CCc4ccccc4F)CC3)c2c1` [Example 390, 1-[1-(2-fluorophenethyl)piperidin-4-yl]-6-formylindole], the Ki at serotonin 2 receptor (setting [1]) came to 11.6 nM; on serotonin 1A receptor it was 0.99 nM; at α1 adrenalin receptor (setting [2]), 34.3 nM.
For `CNCc1ccc2ccn(C3CCN(CCc4ccc(F)cc4)CC3)c2c1` [Example 361, 1-[1-(4-fluorophenethyl)piperidin-4-yl]-6-N-methylaminomethylindole], the Ki at serotonin 2 receptor (setting [1]) is more than 20 nM; at serotonin 1A receptor, 0.27 nM; on α1 adrenalin receptor (setting [2]), 77.4 nM.
As to `O=C(Cc1ccc2ccn(C3CCN(CCc4ccc(F)cc4)CC3)c2c1)N1CCCC1` [Example 298, 1-[1-(4-fluorophenethyl)piperidin-4-yl]-6-(tetramethylenecarbamoylmethyl)indole Oxalate], the Ki on serotonin 2 receptor (setting [1]) turned out to be 21.3 nM; at serotonin 1A receptor, 1.86 nM; at α1 adrenalin receptor (setting [2]) it was 27.9 nM.
For `O=C(Cc1ccc2ccn(C3CCN(CCc4ccc(F)cc4)CC3)c2c1)NCc1ccncc1` [Example 314, 1-[1-(4-fluorophenethyl)piperidin-4-yl]-6-(pyridin-4-yl)methylcarbamoylmethylindole], the Ki at serotonin 2 receptor (setting [1]) amounted to 1.1 nM; at serotonin 1A receptor it was 0.72 nM; on α1 adrenalin receptor (setting [2]), 51.3 nM.
`CC(=O)NCc1ccc2ccn(C3CCN(CCc4ccc(C(C)O)cc4)CC3)c2c1` (stereo not drawn) [Example 388, 1-{4-[(1-hydroxyethyl)phenethyl]piperidin-4-yl}-6-acetamidomethylindole]: the Ki at serotonin 2 receptor (setting [1]) was more than 20 nM; on serotonin 1A receptor, 2.26 nM; at α1 adrenalin receptor (setting [2]), 366 nM.
For `N#CCNC(=O)Cc1ccc2ccn(C3CCN(CCc4ccc(F)cc4)CC3)c2c1` [Example 308, 1-[1-(4-fluorophenethyl)piperidin-4-yl]-6-cyanomethylcarbamoylmethylindole Oxalate] the same measures were 3.84 nM, 0.73 nM and 59.4 nM.
For `Fc1ccc(CCCN2CCC(N3CCc4ccccc43)CC2)cc1` [Example 13, 1-[1-(4-fluorophenylpropyl)piperidin-4-yl]indoline] the same measures were more than 200 nM, 24.2 nM and 188 nM.
The corresponding values for `CC(=O)NCc1ccc2c(CO)cn(C3CCN(CCc4ccc(F)cc4)CC3)c2c1` [Example 372, 1-[1-(4-fluorophenethyl)piperidin-4-yl]-3-hydroxymethyl-6-acetamidomethylindole] are more than 20 nM, more than 20 nM and 206 nM.
As to `O=C(CCCO)NCc1ccc2ccn(C3CCN(CCc4ccc(F)cc4)CC3)c2c1` [Example 329, 1-[1-(4-fluorophenethyl)piperidin-4-yl]-6-(4-hydroxybutyroylamidomethyl)indole Oxalate], the Ki on serotonin 2 receptor (setting [1]) worked out at 2.41 nM; at serotonin 1A receptor it was 2.06 nM; on α1 adrenalin receptor (setting [2]), 149 nM.
For `O=C(Cc1ccc2ccn(C3CCN(CCc4ccc(F)cc4)CC3)c2c1)NCC(O)CO` (stereo not drawn) [Example 340, 1-[1-(4-fluorophenethyl)piperidin-4-yl]-6-(1,2-dihydroxypropan-3-yl)carbamoylmethylindole Oxalate] the same measures were 2.84 nM, 3.02 nM and 340 nM.
For the molecule `OCCOc1ccc(CCN2CCC(N3CCc4ccccc43)CC2)cc1` [Example 26, 1-{1-[4-(2-hydroxyethoxy)phenethyl]piperidin-4-yl}indoline], the Ki came out at 19.5 nM on serotonin 2 receptor (setting [1]), 2.9 nM at serotonin 1A receptor and 51.1 nM at α1 adrenalin receptor (setting [2]).
Regarding `CN(c1ccc2ccn(C3CCN(CCc4ccc(F)cc4)CC3)c2c1)S(C)(=O)=O` [Example 335], the results for the Ki at serotonin 2 receptor, at serotonin 1A receptor and on α1 adrenalin receptor (setting [2]) were more than 20 nM, 0.22 nM and 28.4 nM, respectively.
Consider `COc1cccc(Cc2ccc3c(c2)N(C2CCN(CCc4ccc(F)cc4)CC2)CC3)n1` [Example 187, 1-[1-(4-fluorophenethyl)piperidin-4-yl]-6-[1-(2-methoxypyridin-6-yl)methyl]indoline], for which the Ki was 5.01 nM on serotonin 2 receptor (setting [1]), 65 nM at serotonin 1A receptor and more than 200 nM on α1 adrenalin receptor (setting [2]).
With `O=C(CN1CCCCC1)NCc1ccc2ccn(C3CCN(CCc4ccc(F)cc4)CC3)c2c1` [Example 376, 1-[1-(4-fluorophenethyl)piperidin-4-yl]-6-[(piperidin-1-yl)acetamido]methylindole], the Ki at serotonin 2 receptor (setting [1]) was 2.1 nM; on serotonin 1A receptor it was 0.91 nM; on α1 adrenalin receptor (setting [2]), 46.7 nM.
For `CCC(O)c1ccc2ccn(C3CCN(CCc4ccc(F)cc4)CC3)c2c1` (stereo not drawn) [Example 319, 1-[1-(4-fluorophenethyl)piperidin-4-yl]-6-(1-hydroxyproyl)indole Oxalate] the same measures were 24.5 nM, 0.56 nM and 42.5 nM.

The values above are taken from patent US6579881B2 (Eisai Co., Ltd., priority 1997, dated 2003).
